The values that follow come from patent publication US7402698B2, “Secondary amino-and cycloamino-cycloalkanol derivatives and methods of their use” (Wyeth, priority 2003, dated 2008).

Where a name gives a salt, the structure may show the parent alone.

The target of this test is T1, human hNET (Homo sapiens, UniProt P23975).
T1 construct: expressed in transfected cells; host or cells: MDCK-Net6 (MDCK cells stably transfected with hNET)
T1 sequence (P23975 whole entry): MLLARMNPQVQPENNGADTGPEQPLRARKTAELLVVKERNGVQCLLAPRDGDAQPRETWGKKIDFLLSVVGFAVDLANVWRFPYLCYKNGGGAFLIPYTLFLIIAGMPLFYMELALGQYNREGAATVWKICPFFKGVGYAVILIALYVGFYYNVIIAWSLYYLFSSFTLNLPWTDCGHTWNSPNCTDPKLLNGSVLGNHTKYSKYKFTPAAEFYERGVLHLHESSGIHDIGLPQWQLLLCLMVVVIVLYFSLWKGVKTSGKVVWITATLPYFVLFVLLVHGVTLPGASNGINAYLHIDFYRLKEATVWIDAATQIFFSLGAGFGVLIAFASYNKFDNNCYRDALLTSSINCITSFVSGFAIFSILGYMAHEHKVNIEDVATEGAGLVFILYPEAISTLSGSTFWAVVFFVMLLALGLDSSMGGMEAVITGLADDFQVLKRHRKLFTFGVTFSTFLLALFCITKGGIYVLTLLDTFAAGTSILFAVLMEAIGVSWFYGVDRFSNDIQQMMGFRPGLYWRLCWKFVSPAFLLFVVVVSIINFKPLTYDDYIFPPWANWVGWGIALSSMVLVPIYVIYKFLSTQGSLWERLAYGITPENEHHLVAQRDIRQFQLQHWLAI
The experiment in a line: Norepinephrine (NE) uptake assay in MDCK-Net6 cells. It is filed as cell-based. The settings on record: 1 μM test compound, [3H]NE uptake. Here is the method:
MDCK-Net6 cells, stably transfected with human hNET (Pacholczyk, T., R. D. Blakely, and S. G. Amara, Nature, 1991, 350(6316): p. 350-4) were cultured in growth medium containing high glucose DMEM (Gibco, Cat. No. 11995), 10% FBS (dialyzed, heat-inactivated, US Bio-Technologies, Lot FBD1129HI) and 500 μg/ml G418 (Gibco, Cat. No. 10131). Cells were plated at 300,000/T75 flask and cells were split twice weekly. The JAR cell line (human placental choriocarcinoma) was purchased from ATCC (Cat. No. HTB-144). The cells were cultured in growth medium containing RPMI 1640 (Gibco, Cat. No. 72400), 10% FBS (Irvine, Cat. No. 3000), 1% sodium pyruvate (Gibco, Cat. No. 1136) and 0.25% glucose. Cells were plated at 250,000 cells/T75 flask and split twice weekly. For all assays, cells were plated in Wallac 96-well sterile plates (PerkinEimer, Cat. No. 3983498).
On day 1, cells were plated at 3,000 cells/well in growth medium and maintained in a cell incubator (37° C., 5% CO2). On day 2, growth medium was replaced with 200 μl of assay buffer (25 mM HEPES; 120 mM NaCl; 5 mM KCl; 2.5 mM CaCl2; 1.2 mM MgSO4; 2 mg/ml glucose (pH 7.4, 37° C.)) containing 0.2 mg/ml ascorbic acid and 10 μM pargyline. Plates containing cells with 200 μl of assay buffer were equilibrated for 10 minutes at 37° C. prior to addition of compounds. A stock solution of desipramine was prepared in DMSO (10 mM) and delivered to triplicate wells containing cells for a final test concentration of 1 μM. Data from these wells were used to define non-specific NE uptake (minimum NE uptake). Test compounds were prepared in DMSO (10 mM) and diluted in assay buffer according to test range (1 to 10,000 nM). Twenty-five microliters of assay buffer (maximum NE uptake) or test compound were added directly to triplicate wells containing cells in 200 μl of assay buffer. The cells in assay buffer with test compounds were incubated for 20 minutes at 37° C. To initiate the NE uptake, [^3H]NE diluted in assay buffer (120 nM final assay concentration) was delivered in 25 μl aliquots to each well and the plates were incubated for 5 minutes (37° C.). The reaction was terminated by decanting the supernatant from the plate. The plates containing cells were washed twice with 200 μl assay buffer (37° C.) to remove free radioligand. The plates were then inverted, left to dry for 2 minutes, then reinverted and air-dried for an additional 10 minutes. The cells were lysed in 25 μl of 0.25 N NaOH solution (4° C.), placed on a shake table and vigorously shaken for 5 minutes. After cell lysis, 75 μl of scintillation cocktail was added to each well and the plates were sealed with film tape. The plates were returned to the shake table and vigorously shaken for a minimum of 10 minutes to ensure adequate partitioning of organic and aqueous solutions. The plates were counted in a Wallac Microbeta counter (PerkinEimer) to collect the raw cpm data.
For each experiment, a data stream of cpm values collected from the Wallac Microbeta counter was downloaded to a Microsoft Excel statistical application program. Calculations of EC50 values were made using the transformed-both-sides logistic dose responses program written by Wyeth Biometrics Department. The statistical program uses mean cpm values from wells representing maximum binding or uptake (assay buffer) and mean cpm values from wells representing minimum binding or uptake ((1 μM desipramine (hNET) or 1 μM paroxetine (hSERT)). Estimation of the EC50 value was completed on a log scale and the line was fit between the maximum and minimum binding or uptake values. All graphic data representation was generated by normalizing each data point to a mean percent based on the maximum and minimum binding or uptake values. The EC50 values reported from multiple experiments were calculated by pooling the raw data from each experiment and analyzing the pooled data as one experiment.
In the case of `OC1(C(CN2CCNCC2)c2cccc(Cl)c2)CCCCC1` (centres unmarked) [Example 1, 1-[1-(3-chlorophenyl)-2-piperazin-1-ylethyl]cyclohexanol dihydrochloride], the inhibition (usually the drop in the measured response relative to a control, in per cent) at 1 µM is 93%.
With `OC1(C(CNCc2ccccc2)c2ccc(Cl)c(Cl)c2)CCC1` (centres unmarked) [Example 10, 1-[2-(benzylamino)-1-(3,4-dichlorophenyl)ethyl]cyclobutanol hydrochloride] the figure was 92%; with `OC1(C(CNCc2ccccc2)c2ccc3ccccc3c2)CCC1` (centres unmarked) [Example 12, 1-[2-(benzylamino)-1-(2-naphthyl)ethyl]cyclobutanol hydrochloride], 90%.
As for `CN1CCC(O)(C(CNCc2ccccc2)c2ccc(Cl)c(Cl)c2)CC1` (centres unmarked) [Example 15, 4-[2-(benzylamino)-1-(3,4-dichlorophenyl)ethyl]-1-methylpiperidin-4-ol dihydrochloride], the figure is 89%; as for `OC1(C(CNCc2cccc(Cl)c2)c2ccc3ccccc3c2)CCCCC1` (centres unmarked) [Example 33, 1-[2-[(3-chlorobenzyl)amino]-1-(2-naphthyl)ethyl]cyclohexanol hydrochloride], 69%; as for `OC1(C(CN2CCCC2)c2cccc(Cl)c2)CCCCC1` (centres unmarked) [Example 34, 1-[1-(3-chlorophenyl)-2-pyrrolidin-1-ylethyl]cyclohexanol hydrochloride], 65%.
With `OC1(C(CNCc2ccccc2)c2ccc(Cl)c(Cl)c2)CCCCC1` (centres unmarked) [Example 38, 1-[2-(benzylamino)-1-(3,4-dichlorophenyl)ethyl]cyclohexanol hydrochloride] the figure was 56%; with `OC1(C(CNCc2ccccc2)c2cccc(Br)c2)CCC1` (centres unmarked) [Example 40, 1-[2-(benzylamino)-1-(3-bromophenyl)ethyl]cyclobutanol hydrochloride], 55%; with `OC1(C(CNCc2ccccc2)c2cccc(Cl)c2)CCCCC1` (centres unmarked) [Example 41, 1-[2-(benzylamino)-1-(3-chlorophenyl)ethyl]cyclohexanol hydrochloride], 51%.
Consider `OC1(C(CNC2CCCCC2)c2ccc(Cl)c(Cl)c2)CCCCC1` (centres unmarked) [Example 42, 1-[2-(cyclohexylamino)-1-(3,4-dichlorophenyl)ethyl]cyclohexanol hydrochloride], for which the inhibition at 1 µM was determined as 48%.
As for `CN1CCC(O)(C(CNCc2ccccc2)c2cccc(Br)c2)CC1` (centres unmarked) [Example 44, 4-[2-(benzylamino)-1-(3-bromophenyl)ethyl]-1-methylpiperidin-4-ol dihydrochloride], the figure is 44%; as for `OC1(C(CNCc2ccc(F)cc2)c2cccc(C(F)(F)F)c2)CCCCC1` (centres unmarked) [Example 47, 1-{2-[(4-fluorobenzyl)amino]-1-[3-(trifluoromethyl)phenyl]ethyl}cyclohexanol hydrochloride], 40%; as for `OC1(C(CNC2CCCCC2)c2cccc(Br)c2)CCCCC1` (centres unmarked) [Example 48, 1-[1-(3-bromophenyl)-2-(cyclohexylamino)ethyl]cyclohexanol hydrochloride], 40%.
With `OC1(C(CNC2CCCc3ccccc32)c2cccc(Br)c2)CCCCC1` (centres unmarked) [Example 55, 1-[1-(3-bromophenyl)-2-(1,2,3,4-tetrahydronaphthalen-1-ylamino)ethyl]cyclohexanol hydrochloride] the figure was 38%; with `OC1(C(CN2CCOCC2)c2cccc(Cl)c2)CCCCC1` (centres unmarked) [Example 57, 1-[1-(3-chlorophenyl)-2-morpholin-4-ylethyl]cyclohexanol hydrochloride], 35%; with `OC1(C(CNCc2cccc(Cl)c2)c2cccc(Br)c2)CCCCC1` (centres unmarked) [Example 60, 1-{1-(3-bromophenyl)-2-[(3-chlorobenzyl)amino]ethyl}cyclohexanol hydrochloride], 33%.
With `OC1(C(CNCc2ccccc2)c2cccc(Br)c2)CCCCC1` (centres unmarked) [Example 61, 1-[2-(benzylamino)-1-(3-bromophenyl)ethyl]cyclohexanol hydrochloride] the figure was 31%.
